{"source": "ChEMBL document CHEMBL1142528", "about": "(J Med Chem, 2008)", "key": {"[1]": {"biological_target": "5-hydroxytryptamine receptor 2A (Homo sapiens, UniProt P28223)", "sequence (P28223 whole entry)": "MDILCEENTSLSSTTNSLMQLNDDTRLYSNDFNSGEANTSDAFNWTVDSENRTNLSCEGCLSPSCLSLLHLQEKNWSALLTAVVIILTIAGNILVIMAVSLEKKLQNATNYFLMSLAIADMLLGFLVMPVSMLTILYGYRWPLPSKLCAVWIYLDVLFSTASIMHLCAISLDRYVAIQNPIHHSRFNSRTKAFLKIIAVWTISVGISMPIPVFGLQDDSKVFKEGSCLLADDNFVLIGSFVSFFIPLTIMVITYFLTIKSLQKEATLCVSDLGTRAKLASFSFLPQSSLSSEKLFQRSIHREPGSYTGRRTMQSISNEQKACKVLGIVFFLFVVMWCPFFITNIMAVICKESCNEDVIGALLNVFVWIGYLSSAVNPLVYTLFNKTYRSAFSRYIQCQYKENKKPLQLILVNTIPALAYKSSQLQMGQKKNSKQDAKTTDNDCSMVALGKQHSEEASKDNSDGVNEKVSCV", "test": "Displacement of [3H]ketanserin from 5HT2A receptor expressed in NIH3T3 cells", "type": "cell-based"}, "[2]": {"biological_target": "Sodium-dependent serotonin transporter (Homo sapiens, UniProt P31645)", "sequence (P31645 whole entry)": "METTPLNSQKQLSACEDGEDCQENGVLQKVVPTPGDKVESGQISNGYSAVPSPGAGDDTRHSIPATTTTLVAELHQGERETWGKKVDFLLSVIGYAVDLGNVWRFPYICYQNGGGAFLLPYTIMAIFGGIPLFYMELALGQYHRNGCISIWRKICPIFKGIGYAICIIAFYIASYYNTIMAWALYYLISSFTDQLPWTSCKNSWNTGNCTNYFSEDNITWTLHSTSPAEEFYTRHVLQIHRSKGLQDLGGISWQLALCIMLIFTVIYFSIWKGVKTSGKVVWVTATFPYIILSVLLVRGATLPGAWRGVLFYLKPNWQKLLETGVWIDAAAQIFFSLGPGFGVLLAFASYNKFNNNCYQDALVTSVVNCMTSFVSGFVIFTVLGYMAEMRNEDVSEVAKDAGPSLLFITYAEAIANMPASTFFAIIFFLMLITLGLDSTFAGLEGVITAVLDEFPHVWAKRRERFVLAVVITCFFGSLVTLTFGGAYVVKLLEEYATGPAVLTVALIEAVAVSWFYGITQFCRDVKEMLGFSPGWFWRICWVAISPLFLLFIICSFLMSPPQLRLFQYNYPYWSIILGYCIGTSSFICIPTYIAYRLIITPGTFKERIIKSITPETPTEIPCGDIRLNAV", "test": "Displacement of [3H]paroxitine from SERT"}, "[3]": {"biological_target": "Sodium-dependent noradrenaline transporter (Homo sapiens, UniProt P23975)", "sequence (P23975 whole entry)": "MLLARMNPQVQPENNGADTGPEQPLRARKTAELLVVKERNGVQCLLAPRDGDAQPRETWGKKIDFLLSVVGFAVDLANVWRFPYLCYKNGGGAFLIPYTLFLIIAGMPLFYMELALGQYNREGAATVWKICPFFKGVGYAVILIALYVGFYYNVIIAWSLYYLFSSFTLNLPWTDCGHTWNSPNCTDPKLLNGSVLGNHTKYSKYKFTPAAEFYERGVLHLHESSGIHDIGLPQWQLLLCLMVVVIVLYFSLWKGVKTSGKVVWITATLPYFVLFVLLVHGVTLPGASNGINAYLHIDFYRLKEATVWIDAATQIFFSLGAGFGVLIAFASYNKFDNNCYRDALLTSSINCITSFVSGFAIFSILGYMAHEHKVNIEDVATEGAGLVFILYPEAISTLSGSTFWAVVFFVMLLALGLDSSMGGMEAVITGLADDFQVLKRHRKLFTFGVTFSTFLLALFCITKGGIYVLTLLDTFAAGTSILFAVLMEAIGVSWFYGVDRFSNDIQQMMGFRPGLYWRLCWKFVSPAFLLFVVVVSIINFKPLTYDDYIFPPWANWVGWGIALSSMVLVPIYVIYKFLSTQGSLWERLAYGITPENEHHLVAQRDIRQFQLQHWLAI", "test": "Displacement of [3H]nisoxitine from NET"}, "[4]": {"biological_target": "5-hydroxytryptamine receptor 2A (Homo sapiens, UniProt P28223, F340L)", "sequence (P28223 whole entry F340L)": "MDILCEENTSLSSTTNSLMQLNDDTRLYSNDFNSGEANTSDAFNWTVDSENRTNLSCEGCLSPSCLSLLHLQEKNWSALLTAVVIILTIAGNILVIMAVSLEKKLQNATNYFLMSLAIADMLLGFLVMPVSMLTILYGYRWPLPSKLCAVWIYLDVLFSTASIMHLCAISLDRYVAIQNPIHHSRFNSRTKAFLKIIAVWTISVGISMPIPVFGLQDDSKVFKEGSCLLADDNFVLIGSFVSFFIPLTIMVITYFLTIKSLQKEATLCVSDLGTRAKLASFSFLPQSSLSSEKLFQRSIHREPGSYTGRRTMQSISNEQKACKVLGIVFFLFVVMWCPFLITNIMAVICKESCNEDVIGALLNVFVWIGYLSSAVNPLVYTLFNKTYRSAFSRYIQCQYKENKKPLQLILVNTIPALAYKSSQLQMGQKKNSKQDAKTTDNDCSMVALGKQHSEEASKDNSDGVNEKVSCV", "test": "Displacement of [3H]ketanserein from 5HT2A receptor F340L mutant expressed in NIH3T3 cells", "type": "cell-based"}, "[5]": {"biological_target": "T1, 5-hydroxytryptamine receptor 2C (Homo sapiens, UniProt P28335)", "T1 sequence (P28335 whole entry)": "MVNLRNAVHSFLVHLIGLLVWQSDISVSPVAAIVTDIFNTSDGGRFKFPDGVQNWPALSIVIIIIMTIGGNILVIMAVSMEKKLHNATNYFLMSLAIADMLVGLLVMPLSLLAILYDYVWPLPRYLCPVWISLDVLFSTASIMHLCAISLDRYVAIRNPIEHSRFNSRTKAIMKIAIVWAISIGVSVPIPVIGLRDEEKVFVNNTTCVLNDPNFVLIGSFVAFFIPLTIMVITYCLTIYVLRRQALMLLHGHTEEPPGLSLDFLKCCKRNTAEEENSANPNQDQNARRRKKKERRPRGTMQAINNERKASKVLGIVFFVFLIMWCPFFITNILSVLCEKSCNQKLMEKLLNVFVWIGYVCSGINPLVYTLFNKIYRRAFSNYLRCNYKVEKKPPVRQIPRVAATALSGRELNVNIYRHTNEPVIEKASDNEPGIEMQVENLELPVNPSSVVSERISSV", "test": "Displacement of [3H]mesulergine from 5HT2C receptor"}, "[6]": {"biological_target": "D(2) dopamine receptor (Homo sapiens, UniProt P14416)", "sequence (P14416 whole entry)": "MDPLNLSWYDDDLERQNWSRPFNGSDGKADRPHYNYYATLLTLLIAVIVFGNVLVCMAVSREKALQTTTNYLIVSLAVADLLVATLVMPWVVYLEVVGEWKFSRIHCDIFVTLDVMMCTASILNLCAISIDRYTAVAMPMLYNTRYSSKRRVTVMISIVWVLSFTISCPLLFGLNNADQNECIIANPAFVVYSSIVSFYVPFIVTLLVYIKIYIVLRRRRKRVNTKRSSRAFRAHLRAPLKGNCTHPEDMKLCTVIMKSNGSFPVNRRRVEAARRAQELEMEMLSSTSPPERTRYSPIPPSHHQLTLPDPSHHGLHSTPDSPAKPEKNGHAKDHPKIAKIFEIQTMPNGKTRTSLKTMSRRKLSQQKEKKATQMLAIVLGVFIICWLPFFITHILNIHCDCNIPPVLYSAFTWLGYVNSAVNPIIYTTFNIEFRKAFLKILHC", "test": "Displacement of [3H]spiperone from dopamine D2 receptor"}}}
{"smiles": "NCC1c2ccccc2Cc2cc(CCCc3ccccc3)ccc21", "note": "(stereo not drawn)", "values": [{"measurement": "Ki", "setting": "[1]", "value": 3.2, "unit": "nM"}]}
{"smiles": "COc1cc(CC(C)N)c(OC)cc1O", "note": "(stereo not drawn)", "values": [{"measurement": "Ki", "setting": "[1]", "value": "> 50000", "unit": "nM"}]}
{"smiles": "NCCc1ccc(CCCc2ccccc2)cc1", "values": [{"measurement": "Ki", "setting": "[1]", "value": 60, "unit": "nM"}]}
{"smiles": "NCC1c2ccccc2Cc2cc(Br)ccc21", "note": "(stereo not drawn)", "values": [{"measurement": "Ki", "setting": "[2]", "value": 1200, "unit": "nM"}, {"measurement": "Ki", "setting": "[3]", "value": 4490, "unit": "nM"}, {"measurement": "Ki", "setting": "[1]", "value": 1.3, "unit": "nM"}, {"measurement": "Ki", "setting": "[4]", "value": 1.8, "unit": "nM"}, {"measurement": "Ki", "setting": "[5]", "value": 3.3, "unit": "nM"}, {"measurement": "Ki", "setting": "[6]", "value": "> 10000", "unit": "nM"}]}
{"smiles": "CCCCCCc1ccc(C(CN)c2ccccc2)cc1", "note": "(stereo not drawn)", "values": [{"measurement": "Ki", "setting": "[1]", "value": 200, "unit": "nM"}]}
{"smiles": "COc1cc(CC(C)N)c(OC)cc1CCCc1ccccc1", "note": "(stereo not drawn)", "values": [{"measurement": "Ki", "setting": "[1]", "value": 10, "unit": "nM"}]}
{"smiles": "NCC(c1ccccc1)c1ccc(Br)cc1", "note": "(stereo not drawn)", "values": [{"measurement": "Ki", "setting": "[1]", "value": 260, "unit": "nM"}, {"measurement": "Ki", "setting": "[4]", "value": 3.5, "unit": "nM"}]}
{"smiles": "CCCCCOc1ccc2c(c1)Cc1ccccc1C2CN", "note": "(stereo not drawn)", "values": [{"measurement": "Ki", "setting": "[1]", "value": 23, "unit": "nM"}]}
{"smiles": "CCCCCCc1ccc(CCN)cc1", "values": [{"measurement": "Ki", "setting": "[1]", "value": 78, "unit": "nM"}]}
{"smiles": "NCC1c2ccccc2Cc2ccccc21", "values": [{"measurement": "Ki", "setting": "[2]", "value": "> 10000", "unit": "nM"}, {"measurement": "Ki", "setting": "[3]", "value": "> 10000", "unit": "nM"}, {"measurement": "Ki", "setting": "[5]", "value": 43, "unit": "nM"}, {"measurement": "Ki", "setting": "[6]", "value": "> 10000", "unit": "nM"}]}
{"smiles": "NCCc1ccc(Br)cc1", "values": [{"measurement": "Ki", "setting": "[1]", "value": 1770, "unit": "nM"}]}
{"smiles": "COc1cc(OC)c(OC)cc1CC(C)N", "note": "(stereo not drawn)", "values": [{"measurement": "Ki", "setting": "[1]", "value": 1200, "unit": "nM"}]}
{"smiles": "CCCCCCc1ccc2c(c1)Cc1ccccc1C2CN", "note": "(stereo not drawn)", "values": [{"measurement": "Ki", "setting": "[2]", "value": 490, "unit": "nM"}, {"measurement": "Ki", "setting": "[3]", "value": 845, "unit": "nM"}, {"measurement": "Ki", "setting": "[1]", "value": 7, "unit": "nM"}, {"measurement": "Ki", "setting": "[5]", "value": 62, "unit": "nM"}, {"measurement": "Ki", "setting": "[6]", "value": 6280, "unit": "nM"}]}
{"smiles": "NCC1c2ccccc2Cc2cc(O)ccc21", "note": "(stereo not drawn)", "values": [{"measurement": "Ki", "setting": "[1]", "value": 107, "unit": "nM"}]}
{"smiles": "CCCCCCc1cc(OC)c(CC(C)N)cc1OC", "note": "(stereo not drawn)", "values": [{"measurement": "Ki", "setting": "[1]", "value": 2.5, "unit": "nM"}]}
